From PubChem BioAssay (NCI)
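48-hour exposure; five concentrations; linearly interpolated endpoints. GI50 = concentration required for 50% inhibition of growth. TGI denotes the concentration required for complete inhibition of growth.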

Experiments:
Test in all cases: DTP human tumour cell line panel, 48 h
[1] = test system: HT29 colon
[2] = test system: SR leukemia
[3] = test system: NCI-H522 lung
[4] = test system: HCT-15 colon
[5] = test system: HCT-116 colon
[6] = test system: DU-145 prostate
[7] = test system: HOP-62 NSCLC
[8] = test system: PC-3 prostate
[9] = test system: HCC-2998 colon
[10] = test system: KM12 colon
[11] = test system: SF-268 CNS
[12] = test system: LOX IMVI melanoma
[13] = test system: 786-0 renal
[14] = test system: EKVX NSCLC
[15] = test system: A498 renal
[16] = test system: SN12C renal
[17] = test system: SK-MEL-28 melanoma
[18] = test system: UACC-62 melanoma
[19] = test system: MOLT-4 leukemia
[20] = test system: NCI/ADR-RES ovarian
[21] = test system: NCI-H460 lung
[22] = test system: MDA-MB-231 breast
[23] = test system: K-562 leukemia
[24] = test system: T-47D breast
[25] = test system: SK-OV-3 ovarian
[26] = test system: U251 CNS
[27] = test system: OVCAR-3 ovarian

COc1ccc(NC(=O)Nc2nc3ccc([N+](=O)[O-])cc3s2)cc1 gave a GI50 [1] of 3.34 µM, a TGI [1] of 14.8 µM and a GI50 [2] of 2.52 µM. It also gave a TGI [2] of 12.8 µM, a GI50 [3] of 1.72 µM and a TGI [3] of 5.94 µM. The GI50 [4] was 2.68 µM, the TGI [4] was 10.4 µM and the GI50 [5] was 2.52 µM. It also gave a TGI [5] of 7.67 µM, a GI50 [6] of 3.02 µM and a TGI [6] of 11.4 µM. For the same molecule, the GI50 [7] was 2.92 µM, the TGI [7] was 10.7 µM and the GI50 [8] was 2.15 µM. The TGI [8] was 8.35 µM, the GI50 [9] was 2.72 µM and the TGI [9] was 9.54 µM. The GI50 [10] was 2.22 µM, the TGI [10] was 5.92 µM and the GI50 [11] was 2.91 µM. For the same molecule, the TGI [11] was 16.2 µM, the GI50 [12] was 2.42 µM and the TGI [12] was 6.18 µM. For the same molecule, the GI50 [13] was 2.89 µM, the TGI [13] was 11.6 µM and the GI50 [14] was 2.66 µM. The TGI [14] was 7.96 µM, the GI50 [15] was 1.66 µM and the TGI [15] was 4.83 µM. It also gave a GI50 [16] of 2.66 µM, a TGI [16] of 8.64 µM and a GI50 [17] of 3.09 µM. It also gave a TGI [17] of 11.9 µM, a GI50 [18] of 2.63 µM and a TGI [18] of over 100 µM. For the same molecule, the GI50 [19] was 2.71 µM, the TGI [19] was 10.7 µM and the GI50 [20] was 2.62 µM. The TGI [20] was 8.16 µM, the GI50 [21] was 2.37 µM and the TGI [21] was 5.79 µM. It also gave a GI50 [22] of 2.76 µM, a TGI [22] of 7.86 µM and a GI50 [23] of 2.71 µM. It also gave a TGI [23] of 13 µM, a GI50 [24] of 1.67 µM and a TGI [24] of 6.66 µM. For the same molecule, the GI50 [25] was 2.37 µM, the TGI [25] was 7.09 µM and the GI50 [26] was 2.24 µM. It also gave a TGI [26] of 5.76 µM and a GI50 [27] of 2.15 µM.
